{"source": "patent US7696185B2", "about": "“Peptidomimetic inhibitors of PSMA, compounds comprising them, and methods of use” (Cancer Targered Technology LLC, priority 2006, dated 2010)", "key": {"LNCaP cells": {"tested_on": "LNCaP cells", "experiment": "Fluorescence/confocal microscopy labeling of PSMA-expressing cells", "type": "cell-based", "details": "PSMA-expressing prostate cancer cells; fluorescence microscopy", "protocol": "(§1) These compounds have been subsequently derivatized with amine-reactive fluorescent dyes (FIG. 9) to specifically label PSMA-expressing prostate cancer cells. […] Confocal microscopy was conducted on both LNCaP and PC3 prostate cancer cells after treatment with L6-V1-21 and propidium iodide.\n(§2) While propidium iodide stained the nuclei of both cell lines, only the surface of the PSMA-expressing LNCaP 6 cells were fluorescently labeled with L6-V1-21. The intensely labeled sites on these LNCaP cells are hypothesized to be locations in which PSMA has aggregated.\n(§3) To confirm that LW-54-F5EX was specific for PSMA-expressing cells, both LNCaP and PC3 cells were treated with this compound. While DAPI (4′,6-diamidino-2-phenylindole) stained nuclear DNA in both cell lines, only LNCaP cells were fluorescently labeled with LW-54-F5EX.\n(§4) In that experiment, both LNCaP and PC3 cells were treated with LW-54-5FAMX. While DAPI (4′,6-diamidino-2-phenylindole) stained nuclear DNA in both cell lines, only LNCaP cells were fluorescently labeled with LW-54-5FAMX."}, "PC3 cells": {"tested_on": "PC3 cells", "experiment": "Fluorescence/confocal microscopy labeling of cells that do not express PSMA (negative control)", "type": "cell-based", "details": "fluorescence microscopy", "protocol": "as §1, §2, §3, §4"}, "purified PSMA": {"target": "T1, purified PSMA (Homo sapiens, UniProt Q04609)", "T1 construct": "against purified PSMA from LNCaP cells by our published method; endogenous in cells; host or cells: LNCaP cells", "T1 sequence (Q04609 whole entry)": "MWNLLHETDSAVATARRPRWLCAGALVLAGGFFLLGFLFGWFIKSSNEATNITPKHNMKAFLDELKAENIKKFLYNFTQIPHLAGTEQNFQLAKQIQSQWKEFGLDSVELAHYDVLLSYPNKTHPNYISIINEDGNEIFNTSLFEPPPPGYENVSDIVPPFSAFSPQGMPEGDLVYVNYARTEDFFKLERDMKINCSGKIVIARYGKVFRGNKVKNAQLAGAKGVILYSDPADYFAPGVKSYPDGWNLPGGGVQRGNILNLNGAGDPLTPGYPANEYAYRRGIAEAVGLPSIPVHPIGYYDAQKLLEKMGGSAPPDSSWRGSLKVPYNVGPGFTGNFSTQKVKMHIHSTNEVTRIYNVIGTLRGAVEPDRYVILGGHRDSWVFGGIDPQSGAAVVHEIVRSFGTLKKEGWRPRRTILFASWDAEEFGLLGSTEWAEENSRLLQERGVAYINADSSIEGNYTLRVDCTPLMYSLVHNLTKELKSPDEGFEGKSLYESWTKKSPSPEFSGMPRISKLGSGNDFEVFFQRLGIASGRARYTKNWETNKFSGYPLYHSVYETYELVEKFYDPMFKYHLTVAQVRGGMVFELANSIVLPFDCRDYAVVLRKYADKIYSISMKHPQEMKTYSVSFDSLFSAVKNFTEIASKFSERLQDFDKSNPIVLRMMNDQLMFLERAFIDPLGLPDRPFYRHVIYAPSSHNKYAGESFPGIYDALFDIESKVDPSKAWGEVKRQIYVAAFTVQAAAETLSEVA", "experiment": "PMSA Inhibition Assay (HPLC, PAB-Glu-γ-Glu substrate)", "type": "biochemical", "details": "for IC50: read-out: IC50 against PSMA; for inhibitory potency / affinity for PSMA (in words): purified PSMA from LNCaP cells", "protocol": "Adapted from, Maung, J.; Mallari, J. P.; Girtsman, T. A.; Wu, L. Y.; Rowley, J. A.; Santiago, N. M.; Brunelle, A.; Berkman, C. E. Probing for a Hydrophobic a Binding Register in Prostate-Specific Membrane Antigen with Phenylalkylphosphonamidates. […] Med. Chem. 2004, 12, 4969.\nWorking solutions of the substrate (N-[4-(phenylazo)benzoyl]-glutamyl-g-glutamic acid, PAB-Glu-γ-Glu) and all inhibitors were made in TRIS buffer (50 mM, pH 7.4). Working solutions of purified PSMA were appropriately diluted in TRIS buffer (50 mM, pH 7.4) to provide from 15% to 20% conversion of substrate to product in the absence of inhibitor. A typical incubation mixture (final volume 250 μL) was prepared by the addition of either 25 μL of an inhibitor solution or 25 μL TRIS buffer (50 mM, pH 7.4) to 175 μL TRIS buffer (50 mM, pH 7.4) in a test tube. A volume of the 25 μL PAB-Glu-γ-Glu (100 μM) was added to the above solution. The enzymatic reaction was initiated by the addition of 25 μL of the PSMA working solution. In all cases, the final concentration of PAB-Glu-γ-Glu was 10 μM while the enzyme was incubated with five serially-diluted inhibitor concentrations to provide a range of inhibition from 10% to 90% inhibition. The reaction was allowed to proceed for 15 min with constant shaking at 37° C. and was terminated by the addition of 25 μL methanolic TFA (2% trifluoroacetic acid by volume in methanol) followed by vortexing. The quenched incubation mixture was quickly buffered by the addition of 25 μL K2HPO4 (0.1 M), vortexed, and centrifuged (10 min at 7000 g). An 85 μL aliquot of the resulting supernatant was subsequently quantified by HPLC. IC50 values were calculated using KaleidaGraph 3.6 (Synergy Software).\nPABGγG and its hydrolytic product (PABG) were separated and quantified using an analytical reversed-phase HPLC column (Lichrosphere C18 5 μm, 150×4.6 mm; Phenomenex, Torrence, Calif.) with a mobile phase consisting of ACN/potassium phosphate [25 mM, pH 2.0 (adjusted with H3PO4)] at a respective volume ratio of 40:60."}, "PSMA [1]": {"target": "T2, PSMA (Homo sapiens, UniProt Q04609)", "T2 sequence (Q04609 whole entry)": "as above", "experiment": "Inhibitor induced PSMA homodimer formation (Western blots)", "type": "biochemical", "details": "treatment of PSMA with inhibitor", "text": "As shown in the representative example in FIG. 6, covalent PSMA dimer formation mediated by T33 is both concentration dependent and time-dependent. […] Although we have not determined the mechanism of inhibition for T33, L36 and MP1D, it is clear that these agents represent a unique class of inhibitors of PSMA that may be used as covalent delivery vehicles specific for PSMA-expressing cancer cells. Based upon a cursory literature review, this is the first design and preparation of irreversible covalent modifiers of PSMA."}, "PSMA [2]": {"target": "T2, PSMA", "experiment": "Time-dependence and reversibility of PSMA inhibition (100-fold dilution of inhibited enzyme)", "type": "biochemical", "details": "for reversibility of PSMA inhibition: recovery of PSMA activity after 100-fold dilution of inhibited enzyme"}, "MMP-2": {"target": "T3, MMP-2 (Homo sapiens, UniProt P08253)", "T3 sequence (P08253 110-660)": "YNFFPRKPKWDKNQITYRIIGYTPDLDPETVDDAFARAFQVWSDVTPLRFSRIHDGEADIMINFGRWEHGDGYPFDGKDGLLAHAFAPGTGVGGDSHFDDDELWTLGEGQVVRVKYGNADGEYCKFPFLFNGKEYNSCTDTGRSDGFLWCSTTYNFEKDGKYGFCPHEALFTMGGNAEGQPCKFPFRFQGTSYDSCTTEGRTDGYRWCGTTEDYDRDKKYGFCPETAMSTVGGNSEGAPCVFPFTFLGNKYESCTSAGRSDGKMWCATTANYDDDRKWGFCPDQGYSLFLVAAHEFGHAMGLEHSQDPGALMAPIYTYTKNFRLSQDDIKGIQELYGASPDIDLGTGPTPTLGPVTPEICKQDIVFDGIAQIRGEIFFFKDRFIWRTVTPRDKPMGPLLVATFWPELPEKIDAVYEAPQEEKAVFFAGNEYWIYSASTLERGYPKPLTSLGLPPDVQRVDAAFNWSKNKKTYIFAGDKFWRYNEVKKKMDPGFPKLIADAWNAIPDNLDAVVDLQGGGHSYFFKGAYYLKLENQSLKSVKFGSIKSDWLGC", "experiment": "MMP-2 inhibition", "type": "biochemical", "details": "concentrations up to 10 μM"}, "[3]": {"target": "matrix metalloproteinase-9 (MMP-9) (Homo sapiens, UniProt P14780)", "sequence (P14780 94-707, species assumed)": "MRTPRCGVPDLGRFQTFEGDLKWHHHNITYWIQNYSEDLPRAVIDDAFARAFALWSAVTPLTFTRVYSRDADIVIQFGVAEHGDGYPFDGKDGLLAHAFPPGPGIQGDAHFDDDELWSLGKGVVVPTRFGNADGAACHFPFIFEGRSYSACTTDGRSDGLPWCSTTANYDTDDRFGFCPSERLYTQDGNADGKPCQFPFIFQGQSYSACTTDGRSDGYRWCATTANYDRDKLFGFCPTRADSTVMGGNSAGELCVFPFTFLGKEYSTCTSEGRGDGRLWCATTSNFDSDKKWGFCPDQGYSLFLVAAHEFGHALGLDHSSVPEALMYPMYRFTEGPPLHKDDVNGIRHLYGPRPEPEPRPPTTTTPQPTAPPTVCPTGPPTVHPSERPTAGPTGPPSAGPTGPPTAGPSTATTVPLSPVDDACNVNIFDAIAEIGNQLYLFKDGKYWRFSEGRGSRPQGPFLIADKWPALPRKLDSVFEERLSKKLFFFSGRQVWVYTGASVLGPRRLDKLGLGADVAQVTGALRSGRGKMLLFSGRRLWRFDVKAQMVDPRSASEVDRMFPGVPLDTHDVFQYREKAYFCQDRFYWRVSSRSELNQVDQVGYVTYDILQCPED", "experiment": "MMP-9 inhibition (specificity study)", "type": "biochemical", "details": "preliminary study; read-out: Ki against MMP-9", "protocol": "To determine that the design of the phosphoramidate inhibitors of the invention is specific to PSMA, a preliminary study was conducted with representative compounds from the T33 analog library (FIG. 1) with matrix metalloproteinase-9 (MMP-9). The MMP enzymes are zinc-dependent endopeptidases involved in the degradation of extracellular matrices."}}}
{"smiles": "O=C1C=CC2C(=C1)Oc1cc(O)ccc1C2c1ccc(NC(=S)N[C@@H](COP(=O)(O)N[C@@H](CCC(=O)O)C(=O)O)C(=O)O)cc1C(=O)O", "note": "(stereo partly drawn) [Compound L6-V1-21, N-[{(2S)-2-carboxy-2-[({[3-carboxy-4-(6-hydroxy-3-oxo-9,9a-dihydro-3H-xanthen-9-yl)phenyl]amino}carbonothioyl)amino]ethoxy} (hydroxy)phosphoryl]-L-glutamic acid]", "values": [{"measurement": "fluorescent labeling of LNCaP cells", "setting": "LNCaP cells", "value": "extensive cell-surface labeling"}, {"measurement": "fluorescent labeling of PC3 cells", "setting": "PC3 cells", "value": "no green fluorescent labeling"}, {"measurement": "IC50", "setting": "purified PSMA", "value": 0.085, "unit": "µM"}]}
{"smiles": "CN(C(=O)c1ccccc1)[C@@H](COP(=O)(O)N[C@@H](CCC(=O)O)C(=O)O)C(=O)O", "note": "[Compound L36, N-[{(2S)-2-[benzoyl(methyl)amino]-2-carboxyethoxy} (hydroxy)phosphoryl]-L-glutamic acid]", "values": [{"measurement": "covalent PSMA homodimer formation", "setting": "PSMA [1]", "value": "formation of covalent PSMA homodimers"}, {"measurement": "reversibility of PSMA inhibition", "setting": "PSMA [2]", "value": "irreversible"}, {"measurement": "inhibitory potency / affinity for PSMA (in words)", "setting": "purified PSMA", "value": "superior inhibitory potency"}]}
{"smiles": "O=C(O)CC[C@H](NP(=O)(O)OC[C@H](NC(=O)c1ccccc1)C(=O)O)C(=O)O", "note": "[Compound T33, N-{[(2S)-2-(benzoylamino) -2-carboxyethoxy](hydroxy)phosphoryl}-L-glutamic acid]", "values": [{"measurement": "covalent PSMA homodimer formation", "setting": "PSMA [1]", "value": "formation of covalent PSMA homodimers"}, {"measurement": "inhibition of MMP-2", "setting": "MMP-2", "value": "no inhibition"}, {"measurement": "time-dependence of PSMA inhibition", "setting": "PSMA [2]", "value": "time-dependent PSMA inhibition"}, {"measurement": "reversibility of PSMA inhibition", "setting": "PSMA [2]", "value": "irreversible"}, {"measurement": "inhibitory potency / affinity for PSMA (in words)", "setting": "purified PSMA", "value": "superior inhibitory potency"}, {"measurement": "IC50", "setting": "purified PSMA", "value": "< 0.05", "unit": "µM"}]}
{"smiles": "NCc1ccc(C(=O)N[C@@H](COP(=O)(O)N[C@@H](CCC(=O)O)C(=O)O)C(=O)O)cc1", "note": "[LW-39, N-{[(2S)-2-{[4-(aminomethyl)benzoyl]amino}-2-carboxyethoxy](hydroxy)phosphoryl}-L-glutamic acid]", "values": [{"measurement": "reversibility of PSMA inhibition", "setting": "PSMA [2]", "value": "irreversible inhibitors"}]}
{"smiles": "O=C1C=CC2C(=C1)Oc1cc(O)ccc1C2c1ccc(NC(=O)CSCCC(=O)N[C@@H](CCC(=O)N[C@@H](COP(=O)(O)N[C@@H](CCC(=O)O)C(=O)O)C(=O)O)C(=O)O)cc1C(=O)O", "note": "(stereo partly drawn) [LW-54-F5EX, N-{3-[(2-{[3-carboxy-4-(6-hydroxy-3-oxo-9,9a-di hydro-3H-xanthen-9-yl)phenyl]amino}-2-oxoethyl)thio]propanoyl}-L-γ-glutamyl -O-[{[(1S)-1,3-dicarboxypropyl]amino}(hydroxy)phosphoryl]-L-serine]", "values": [{"measurement": "fluorescent labeling of LNCaP cells", "setting": "LNCaP cells", "value": "extensive cell-surface labeling"}, {"measurement": "fluorescent labeling of PC3 cells", "setting": "PC3 cells", "value": "no green fluorescent labeling"}]}
{"smiles": "O=C(O)CC[C@H](NP(=O)(O)OCCCCc1ccccc1)C(=O)O", "note": "[MP1D, N-[hydroxy(4-phenylbutoxy)phosphoryl]-L-glutamic acid]", "values": [{"measurement": "reversibility of PSMA inhibition", "setting": "PSMA [2]", "value": "irreversible inhibition"}, {"measurement": "inhibitory potency / affinity for PSMA (in words)", "setting": "purified PSMA", "value": "considerable affinity is maintained"}]}
{"smiles": "O=C(O)CC[C@H](NP(=O)(O)OCC(CCc1ccccc1)C(=O)O)C(=O)O", "note": "(stereo partly drawn) [MP1E, N-[(2-carboxy-4-phenylbutoxy)(hydroxy)phosphoryl] -L-glutamic acid]", "values": [{"measurement": "reversibility of PSMA inhibition", "setting": "PSMA [2]", "value": "irreversible"}]}
{"smiles": "O=C(O)CC[C@H](NP(=O)(O)OCc1ccc(-c2ccccc2)cc1)C(=O)O", "note": "[NC-2-29, N-[(biphenyl-4-ylmethoxy) (hydroxy)phosphoryl]-L-glutamic acid]", "values": [{"measurement": "Ki", "setting": "[3]", "value": 5000, "unit": "µM"}]}
